The assay addresses IDH1 R132H (Homo sapiens (Human), UniProt O75874, R132H). Kind of assay: Effect on the enzyme activity of IDH1 at the molecular level (NADPH consumption, diaphorase/resazurin). Format: biochemical. The settings on record: α-KG 1 mM, NADPH 4 μM, 60 min room temperature. The method, then:
The enzyme used in the experiment was purchased from cayman Co.
The substrates α-KG, NADPH and Diaphorase were purchased from Sigma; Resazurin was purchased from J&K; and the remaining reagents were purchased from Sinopharm Chemical Reagent Co., Ltd.
Compound preparation: Compound 12000 g was centrifuged for 5 min, DMSO was added to prepare 10 mM, which was vortexed, then ultrasonic treatment for 10 minutes, and stored at −40° C. The stock solution was diluted firstly with DMSO to a 10 μM solution when tested and then gradient-diluted for 3 times to a different test concentration.
Test method: The enzyme activity of IDH1 to convert α-KG to 2HG was measured by the consumption of NADPH. After the enzymatic reaction was completed, a catalytic excess of diaphorase and reazurin were added, and the resulting fluorescent signal could reflect the amount of remaining NADPH. […] IC50 values were calculated using GraphPad Prism software.
In general terms: Alamar Blue is a resazurin reagent that responds to reducing activity.

The structures appear in SMILES notation.

Sequence of IDH1 R132H (O75874 whole entry R132H): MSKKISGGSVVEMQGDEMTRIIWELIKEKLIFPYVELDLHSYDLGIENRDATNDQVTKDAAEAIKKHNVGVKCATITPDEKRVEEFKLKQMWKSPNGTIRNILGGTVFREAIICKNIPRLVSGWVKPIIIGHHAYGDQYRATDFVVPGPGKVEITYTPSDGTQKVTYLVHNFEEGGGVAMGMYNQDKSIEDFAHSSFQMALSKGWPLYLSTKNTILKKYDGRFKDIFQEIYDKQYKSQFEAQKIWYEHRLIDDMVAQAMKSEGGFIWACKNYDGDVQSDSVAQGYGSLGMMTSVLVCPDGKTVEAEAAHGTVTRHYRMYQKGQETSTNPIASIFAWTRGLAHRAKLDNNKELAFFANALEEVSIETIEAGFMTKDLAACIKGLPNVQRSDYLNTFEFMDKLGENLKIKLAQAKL

For orientation: IC50 means the midpoint of a concentration-inhibition curve. Compound `[2H]C1([2H])[C@H](C(C)C)N(c2ccnc(N[C@@H](C)c3ccc(-c4cccc(Cl)c4)cn3)n2)C(=O)N1C` [Compound 2, (S)-3-(2-(((S)-1-(5-(3-chlorophenyl)pyridin-2-yl)ethyl)amino)pyrimidin-4-yl)-4-isopropyl-1-methyl-imidazolidine-2-one-5,5-dideutero] showed an IC50 of 100 to 1000 nM.

In the case of `CC(C)[C@H]1CN(C)C(=O)N1c1ccnc(NC2(c3ncn(-c4cccc(C5CC5)c4)c3C#N)CC2)n1` [Compound 69, (S)-1-(3-cyclopropylphenyl)-4-(1-((4-(5-isopropyl-3-methyl-2-oxoimidazolidine-1-yl)pyrimidine-2-yl)amino)cyclopropyl)-1H-imidazole-5-carbonitrile], the IC50 lay within 100 to 1000 nM.

Turning to `CC(C)[C@H]1CN(C)C(=O)N1c1ccnc(NC2(c3cn(-c4cccc(C5CC5)c4)c(Br)n3)CC2)n1` [Compound 67], the 50% inhibitory concentration (IC50) fell in the range of 100 to 1000 nM.

Compound `CC(C)[C@H]1CN(C)C(=O)N1c1ccnc(NC2(c3cn(-c4ccc(C5CC5)cc4)cn3)CC2)n1` [Compound 39, (S)-3-(2-((1-(1-(4-cyclopropylphenyl)-1H-imidazol-4-yl)cyclopropyl)amino)pyrimidin-4-yl)-4-isopropyl-1-methylimidazolidine-2-one] gave an IC50 of 100 to 1000 nM.

As for `CC(C)[C@H]1CN(C)C(=O)N1c1ccnc(N[C@@H](C)c2cn(C3CCC(F)(F)CC3)cn2)n1` [Compound 75, (S)-3-(2-(((S)-1-(1-(4,4-difluorocyclohexyl)-1H-imidazol-4-yl)ethyl)amino)pyrimidin-4-yl)-4-isopropyl-1-methylimidazolidine-2-one], the IC50 lay in the range of 100 to 1000 nM.

`[2H]C1([2H])[C@H](C(C)C)N(c2ccnc(N[C@@H](C)c3cc(C)c(-c4ccnc(C(F)(F)F)c4)cn3)n2)C(=O)N1C` [Compound 109] yielded an IC50 of 100 to 1000 nM.

Regarding `CC(C)[C@H]1CN(C)C(=O)N1c1ccnc(N[C@@H](C)c2cn(C3CCC(C)(C)CC3)cn2)n1` [Compound 56, (S)-3-(2-(((S)-1-(1-(4,4-dimethylcyclohexyl)-1H-imidazol-4-yl)ethyl)amino)pyrimidin-4-yl)-4-isopropyl-1-methylimidazolidine-2-one], the IC50 was 100 to 1000 nM.

For the compound `CC(C)[C@H]1CN(C)C(=O)N1c1ccnc(NC2(c3cn(C4CCC(F)(F)CC4)cn3)CC2)n1` [Compound 36, (S)-3-(2-((1-(1-(4,4-difluorocyclohexyl)-1H-imidazol-4-yl)cyclopropyl)amino)pyrimidin-4-yl)-4-isopropyl-1-methylimidazolidine-2-one], the IC50 was in the range of 100 to 1000 nM.

In turn, `CC(C)CCn1cnc([C@H](C)Nc2nccc(N3C(=O)N(C)C[C@@H]3C(C)C)n2)c1` [Compound 66, (S)-3-(2-(((S)-1-(1-isopentyl-1H-imidazol-4-yl)yl)amino)pyrimidin-4-yl)-4-isopropyl-1-methylimidazolidine-2-one] displayed an IC50 of 100 to 1000 nM.

In the case of `C[C@H](Nc1nccc(N2C(=O)N(C)C[C@@H]2[C@@H](C)O)n1)c1cn(-c2ccc(Cl)cc2)cn1` [Compound 81], the IC50 fell in the range of 100 to 1000 nM.

`CC(C)[C@H]1CN(C)C(=O)N1c1ccnc(NC2(c3cn(-c4cc(F)cc(C5CC5)c4)cn3)CC2)n1` [Compound 53]: the IC50 is under 100 nM.

For the compound `C[C@H](Nc1nccc(N2C(=O)NC[C@@H]2C2CC2)n1)c1cn(-c2ccc(Cl)cc2)cn1` [Compound 14], the IC50 was in the range of 100 to 1000 nM.

`CC(C)[C@H]1CN(C)C(=O)N1c1ccnc(NC2(c3cn(CC4CCCC4)cn3)CC2)n1` [Compound 40, (S)-3-(2-((1-(1-(cyclopentylmethyl)-1H-imidazol-4-yl)cyclopropyl)amino)pyrimidin-4-yl)-4-isopropyl-1-methylimidazolidine-2-one] gave an IC50 of 100 to 1000 nM.

`CC(C)[C@@H]1N(c2ccnc(N[C@@H](C)c3cn(-c4ccc(Cl)cc4)cn3)n2)C(=O)NC12CC2` [Compound 99, (S)-6-(2-(((S)-1-(1-(4-chlorophenyl)-1H-imidazol-4-yl)ethyl)amino)pyrimidin-4-yl)-7-isopropyl-4,6-diazaspiro[2.4] hept-5-one] yielded an IC50 of 100 to 1000 nM.

In turn, `CC(C)[C@H]1CN(C)C(=O)N1c1ccnc(NC2(c3cn(-c4cccc(C5CC5)c4)cn3)CCC2)n1` [Compound 71, (S)-3-(2-((1-(1-(3-cyclopropylphenyl)-1H-imidazol-4-yl)cyclobutyl)amino)pyrimidin-4-yl)-4-isopropyl-1-methylimidazolidine-2-one] came in with an IC50 of 100 to 1000 nM.

`CCN1C[C@H](C(C)C)N(c2ccnc(N[C@@H](C)c3cn(-c4ccc(Cl)cc4)cn3)n2)C1=O` [Compound 74, (S)-3-(2-(((S)-1-(1-(4-chlorophenyl) 1H-imidazol-4-yl)ethyl)amino)pyrimidin-4-yl)-1-ethyl-4-isopropylimidazolidine-2-one] gave an IC50 of 100 to 1000 nM.

The compound `CC(C)[C@H]1CN(C2CC2)C(=O)N1c1ccnc(N[C@@H](C)c2cn(-c3ccc(Cl)cc3)cn2)n1` [Compound 73, (S)-3-(2-(((S)-1-(1-(4-chlorophenyl)-1H-imidazol-4-yl)ethyl)amino)pyrimidin-4-yl)-4-isopropyl-1-cyclopropylimidazolidine-2-one] came in with an IC50 of 100 to 1000 nM.

`CC(C)[C@H]1CN(C)C(=O)N1c1ccnc(NC2(c3cn(-c4cc(Cl)cc(C5CC5)c4)cn3)CC2)n1` [Compound 48]: the IC50 was under 100 nM.

`O=C1NC[C@H](c2ccccc2)N1c1ccnc(NC2(c3cn(-c4ccc(Cl)cc4)cn3)CC2)n1` [Compound 13, (S)-1-(2-((1-(1-(4-chlorophenyl)-1H-imidazol-4-yl)cyclopropyl)amino)pyrimidin-4-yl)-5-phenylimidazolidine-2-one] displayed an IC50 of 100 to 1000 nM.

In turn, `Cc1ccc(-n2cnc(C3(Nc4nccc(N5C(=O)NC[C@@H]5C(C)C)n4)CC3)c2)cn1` [Compound 29, (S)-5-isopropyl-1-(2-((1-(1-(6-methylpyridin-3-yl)-1H-imidazol-4-yl)cyclopropyl)amino)pyrimidine-4-yl)-2-one] showed an IC50 of 100 to 1000 nM.

Regarding `CC(C)[C@H]1CN(C)C(=O)N1c1ccnc(NC2(c3cn(-c4cc(Cl)cc(C#N)c4)cn3)CC2)n1` [Compound 45, (S)-3-chloro-5-(4-(1-((4-(5-isopropyl-3-methylimidazolidine-2-one-1-yl)pyrimidin-2-yl)amine)cyclopropyl)-1H-imidazolidine-1-yl) phenyl cyanide], the IC50 is under 100 nM.

For the compound `CC(C)[C@H]1CN(C)C(=O)N1c1ccnc(NC2(c3cn(-c4ccc(Cl)cc4)cn3)CC2)n1` [Compound 19, (S)-3-(2-((1-(1-(4-chlorophenyl)-1H-imidazol-4-yl)cyclopropyl)amino)pyrimidin-4-yl)-4-isopropyl-1-methylimidazolidine-2-one], the IC50 lay within 100 to 1000 nM.

Take `CC(C)[C@H]1CN(C)C(=O)N1c1ccnc(NC2(c3cn(-c4ccccc4Cl)cn3)CC2)n1` [Compound 51, (S)-3-(2-((1-(1-(2-chlorophenyl)-1H-imidazol-4-yl)cyclopropyl)amino)pyrimidin-4-yl)-4-isopropyl-1-methylimidazolidine-2-one]: the IC50 lay in the range of 100 to 1000 nM.

In turn, `CCN1C[C@H](C(C)C)N(c2ccnc(NC3(c4cn(-c5cccc(Cl)c5)cn4)CC3)n2)C1=O` [Compound 41] gave an IC50 of 100 to 1000 nM.

As to `CC(Nc1nccc(N2C(=O)NC[C@@H]2C(C)C)n1)c1ccc(Oc2ccccc2)cc1` (stereo partly drawn) [Compound 9, (5S)-5-isopropyl-1-(2-((1-(4-phenoxyphenyl)ethyl)amino)pyrimidin-4-yl)imidazolidine-2-one], the IC50 was in the range of 100 to 1000 nM.

As for `CC(C)[C@H]1CNC(=O)N1c1ccnc(NC2(c3cn(-c4ccc(Cl)cc4)cn3)CC2)n1` [Compound 8, (S)-1-(2-((1-(1-(4-chlorophenyl)-1H-imidazol-4-yl)cyclopropyl)amino)pyrimidin-4-yl)-5-isopropyl imidazolidine-2-one], the IC50 fell in the range of 100 to 1000 nM.

Compound `CC(C)[C@@H]1N(c2ccnc(N[C@@H](C)c3cn(-c4ccc(C(F)(F)F)cc4)cn3)n2)C(=O)N(C)C12CC2` [Compound 103, (S)-7-isopropyl-4-methyl-6-(2-(((S)-1-(1-(4-(trifluoromethyl)phenyl)-1H-imidazole-4-yl) Ethyl)amino)-4-yl)-4,6-diazaspiro[2.4]hept-5-one] yielded an IC50 of 100 to 1000 nM.

Take `CC(C)[C@H]1CN(C)C(=O)N1c1ccnc(N[C@@H](C)c2ncn(-c3ccc(Cl)cc3)n2)n1` [Compound 70]: the IC50 was 100 to 1000 nM.

Take `C[C@H](Nc1nccc(N2C(=O)NCC2(C)C)n1)c1cn(-c2ccc(Cl)cc2)cn1` [Compound 12, (S)-1-(2-((1-(1-(4-chlorophenyl)-1H-imidazol-4-yl)ethyl)amino)pyrimidin-4-y 1)-5,5-dimethyl imidazolidine-2-one]: the half-maximal inhibitory concentration (IC50) lay within 100 to 1000 nM.

Turning to `CC(C)c1cccc(-n2cnc([C@H](C)Nc3nccc(N4C(=O)N(C)C[C@@H]4C(C)C)n3)c2)c1` [Compound 54], the IC50 lay within 100 to 1000 nM.

`CC(C)[C@H]1CN(C)C(=O)N1c1ccnc(NC2(c3ccc(-c4ccnc(C(F)(F)F)c4)cn3)CC2)n1` [Compound 113] displayed an IC50 of 100 to 1000 nM.

In the case of `CC(C)[C@H]1CNC(=O)N1c1ccnc(NC2(c3ccc(-c4ccc(Cl)cc4)cc3)CC2)n1` [Compound 16, (S)-1-(2-((1-(4′-chloro-[1,1′-biphenyl]-4-yl)cyclopropyl)amino)pyrimidin-4-yl)-5-isopropyl imidazolidine-2-one], the IC50 was 100 to 1000 nM.

`C[C@H](Nc1nccc(N2C(=O)NCC23CCCC3)n1)c1cn(-c2ccc(Cl)cc2)cn1` [Compound 11, (S)-1-(2-((1-(1-(4-chlorophenyl)-1H-imidazol-4-yl)ethyl)amino)pyrimidin-4-yl)-1,3-diazaspiro[4.4]-2-one] registered an IC50 of 100 to 1000 nM.

The values above are taken from patent publication US10682352B2, “Compound having mutant IDH inhibitory activity, preparation method and use thereof” (SHANGHAI HAIHE PHARMACEUTICAL CO., LTD., priority 2016, dated 2020).
